Test results from US7374894B2, “Methods of identifying compounds that modulate IL-4 receptor-mediated IgE synthesis utilizing a chloride intracellular channel 1 protein” (Rigel Pharmaceuticals, Inc., priority 2002, dated 2008).

Key:
[1] = test system: IL-4 induced germline ε transcription; test: Re-infection assay in naïve A5T4 reporter cells (BFP-/BFP+ GFP FACS); format: cell-based, human; details: for functional category of mutant as compared to wild type peptide, based on reporter ratio: % change calculated after subtracting 1.0 from the individual ratios; for Reporter Ratio: screening in the A5T4 reporter line, DL03 wt and double-residue mutants
Experimental: The ability of peptide DL03 wt (SEQ ID NO:1) to inhibit germline ε transcription was confirmed in naïve cells. Briefly, Phoenix cells were transfected with a retroviral vector encoding a BFP-DL03 wt (SEQ ID NO:1) peptide fusion as described in WO 99/58663 and WO 97/27213. Naïve A5T4 cells were infected with the resultant virions and grown for 3 days. The infected cells were stimulated with IL-4 (60 U/mL) and, after 3 days, the cells were assessed by FACS for BFP and GFP. […] The BFP fluorescence data corresponding to the BFP^+ and BFP^− populations are provided in Panel A. The GFP fluorescence data corresponding to the BFP^+ and BFP^− populations are presented in Panel B. The reporter ratio for this purpose is determined as the geometric mean of the GFP fluorescence of the BFP^− population divided by the geometric mean of the GFP fluorescence of the BFP^+ population as presented in panel C. The reporter ratio for the DL03 in this re-infection assay was 1.50.
A collection of DL03 mutants was generated by replacing double amino acid residues in the sequence of DL03 wt (SEQ ID NO:1) with a different amino acid, typically an alanine, as described in copending application Ser. No. 10/095,659. The functional profiles for the mutants derived from DL03 wt (SEQ ID NO:1) was obtained by constructing and screening for activity in the A5T4 reporter cell line in the manner described above. The activity of each mutant at the germline ε promoter is reflected in the reporter ratio as described above. The reporter ratios were the functional values that were used to develop the functional profiles.
Comparison of the interaction and functional profiles was performed by categorizing the mutants of DL03 based on the functional and interaction assays. Based on the reporter ratio, described in panel C of FIG. 4, each mutant was categorized into one of four functional categories: (1) reduction of function (ROF); (2) loss of function (LOF); (3) increase of function (IOF) or (4) functionally neutral (N) as compared to the activity of the wild type peptide, here DL03 wt (SEQ ID NO:1). As mentioned previously, cells expressing a peptide that inhibits germline ε transcription have reporter ratios of ≧1.1. Cell expressing a loss of function (LOF) mutant have a reporter ratio of […]. […] Functionally neutral mutants have reporter ratios that fall within ±50% of that of the DL03 wt (SEQ ID NO:1). The % increase or decrease in reporter ratio is calculated after subtracting 1.0 from the individual ratios. Using these criteria, peptide DL03IL (SEQ ID NO:2) and peptide DL03LA (SEQ ID NO:4) were designated as ROF mutants, peptide DL03KP (SEQ ID NO:3) was designated as a IOF mutant, peptides DL03TS (SEQ ID NO:5), DL03GA (SEQ ID NO:6), DL03TT (SEQ ID NO:7), DL03AS (SEQ ID NO:8), and DL03MT (SEQ ID NO:9) were designated as neutral. No LOF mutant were found for the DL03 clone.

human CLIC1 (hCLIC1) = target: T1, human CLIC1 (hCLIC1) (Homo sapiens, UniProt O00299); test: β-galactosidase yeast two hybrid (YTH) interaction assay; format: binding
T1 construct: expressed in transfected cells; prey cDNA from the A5T4 reporter line (derived from BJAB B-cells)
Experimental: Potential binding partners for peptide DL03 wt (SEQ ID: 1) were identified in a β-galactosidase yeast two-hybrid (YTH) assay using peptide DL03 wt (SEQ ID: 1) as bait and a cDNA library constructed from the A5T4 reporter cell line as prey. Binding was assessed by β-galactosidase quantification using BetaFluor (Novagen) as a substrate. A negative interaction control (no cDNA fused downstream of the GAL4 activation domain sequence) was also run. A general outline of the YTH assay is illustrated in FIG. 5A. Following clustering, filtering to remove non-specific bait hits (e.g., GFP and BFP), singletons and clusters recognized by 10 or more cDNA baits (based upon historical YTH assays), and prioritization, 22 prey clones were identified as hits.
Potential targets identified in the YTH assay were reconfirmed as generally outlined in FIG. 6. The cDNA clones identified as hits in the YTH assay were purified and rescreened for interaction with the DL03 wt (SEQ ID NO:1) peptide in a YTH assay. The hit clones were also screened in a control assay for interaction with the BFP using a vector (pGBKT7) that contained only the BFP and not the DL03 peptide. At this stage, 12 putative target clones remained.
The interaction of DL03 wt (SEQ ID NO:1) peptide and its mutants with the clones identified as potential targets for the peptide DL03 wt (SEQ ID NO:1) was then quantified in a β-galactosidase YTH assay. The YTH assay was performed in the manner described above. A general outline of this YTH assay is illustrated in FIG. 5B. For each clone tested, an interaction profile was developed by comparing the β-galactosidase activity of each mutant to that of the wild type peptide as described above.
The interaction of these IOF and ROF mutants with different polypeptides encoded by the putative target clones were quantified using the YTH assay described above. Based on the YTH assay, for each putative target, the mutants were categorized into the following four interaction categories: (1) reduction of interaction (ROI); (2) loss of interaction (LOI); (3) increase of interaction (IOI); and (4) interactionally neutral (N), by assessing the binding affinity ratio of the mutant peptide and the wild type peptide (β-gal activity of mutant/wild type) to the putative target. For the YTH interaction assay mutants DL03IL (SEQ ID NO:2), DL03KP (SEQ ID NO:3), DL03LA (SEQ ID NO:4), as well as originally identified peptide DL03 wt (SEQ ID NO:1) were used.
Based on these functional and interaction categorizations, graphic profile representations for each potential target polypeptide were obtained using a weighted categorization process as depicted in FIG. 9. […]

germline α promoter = test: TAQMAN assay of endogenous germline α transcription in ST486 cells stimulated with TGF-β; format: cell-based; details: TGF-β 40 ng/ml, average of 3 values, p=0.3228
Experimental: The assay was similar to that described in the immediately preceding section, except that ST486 cells (ATCC # CRL-1647) engineered to express the tetracycline-regulated transactivator were infected and the infected cells were stimulated with TGF-β (40 ng/ml; Peprotech). The primers and probe, which are specific for the transcription product driven by the ST486 endogenous α promoter, were as follows (the probe was labeled at the 5′-end with Fam and at the 3′-end with Tamra): […]

Substance	functional category of mutant as compared to wild type peptide, based on reporter ratio [1]	Reporter Ratio [1]	binding to human CLIC1 in yeast two hybrid interaction assay (human CLIC1 (hCLIC1))	endogenous α inhibition ratio (germline α promoter)
LYAAI LLHGATTASMTKPLA (LYAAILLHGATTASMTKPLA; peptide generated from combinatorial library) [DL03TS, double-residue mutant of DL03 wt]	neutral	1.49		
LYTS I LLHARTTASMTKPLA (LYTSILLHARTTASMTKPLA; peptide generated from combinatorial library) [DL03GA, double-residue mutant of DL03 wt]	neutral	1.67		
LYTS I LLHGAAAASMTKPLA (LYTSILLHGAAAASMTKPLA; peptide generated from combinatorial library) [DL03TT, double-residue mutant of DL03 wt]	neutral	1.43		
LYTS I LLHGATTASAAKPLA (LYTSILLHGATTASAAKPLA; Peptide generated from combinatorial library) [DL03MT, double-residue mutant of DL03 wt]	neutral	1.30		
LYTS I LLHGATTASMTAALA (LYTSILLHGATTASMTAALA; peptide generated from combinatorial library) [DL03KP, double-residue mutant of DL03 wt]	IOF (An increase of function mutant (IOF) shows a >50% increase in reporter ratio)		found to bind	
LYTS I LLHGATTASMTKPAR (LYTSILLHGATTASMTKPAR; peptide generated from combinatorial library) [DL03LA, double-residue mutant of DL03 wt]			found to bind	
LYTS I LLHGATTASMTKPLA (LYTSILLHGATTASMTKPLA; peptide generated from a combinatorial library) [DL03wt, peptide 20-mer identified from a retroviral random library, expressed in cells as BFP-peptide fusion]			found to bind	0.66
LYTS I LLHGATTRAMTKPLA (LYTSILLHGATTRAMTKPLA; Peptide generated from combinatorial library) [DL03AS, double-residue mutant of DL03 wt]	neutral	1.57		
LYTSAALHGATTASMTKPLA (Peptide generated by a combinatorial library) [DL03IL, double-residue mutant of DL03 wt]			found to bind	
